Test results from US20240059703A1 (AMGEN INC., priority 2021, published 2024).

Biological target: KRAS G12C (Homo sapiens (Human), UniProt P01116, C118A/G12C)
Assay: 2 h coupled exchange assay
Format: biochemical
Conditions: Avg 2 h Coupled exchange IC50, 2 h compound pre-incubation, SOS-mediated nucleotide exchange
Procedure: The term “2 h coupled exchange assay” or “20 h coupled exchange assay” as used herein refers to the assay described in the Section entitled “BIOLOGICAL EVALUATION.”

Sequence of KRAS G12C (P01116 other isoform, or with tags, fused parts or gaps G12C/C118A): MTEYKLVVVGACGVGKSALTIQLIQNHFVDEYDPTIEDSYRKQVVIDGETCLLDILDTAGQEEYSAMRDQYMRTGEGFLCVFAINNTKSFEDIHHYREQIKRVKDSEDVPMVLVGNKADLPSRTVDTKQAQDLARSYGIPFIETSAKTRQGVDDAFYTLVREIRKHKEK

Row | IC50 | Structure (SMILES)
1 | 4.39 µM | C=CC(=O)N1CC2(CCN(c3cc4c(c(-c5c(C)ccc6[nH]ncc56)c3C#N)COCC4)C2)C1 (single isomer, unassigned) [Example 2-99, (M)-8-(5-methyl-1H-indazol-4-yl)-6-(2-(2-propenoyl)-2,6-diazaspiro[3.4]octan-6-yl)-3,4-dihydro-1H-2-benzopyran-7-carbonitrile]
2 | 14.1 µM | C=CC(=O)N1CC2(CCN(c3nc4c(c(-c5c(C)c(Cl)cc6[nH]ncc56)c3Cl)COC(C)(C)C4)C2)C1 (single isomer, unassigned) [Example 2-108, (M)-1-(6-(3-chloro-4-(6-chloro-5-methyl-1H-indazol-4-yl)-7,7-dimethyl-7,8-dihydro-5H-pyrano[4,3-b]pyridin-2-yl)-2,6-diazaspiro[3.4]octan-2-yl)-2-propen-1-one]
3 | 0.443 µM | C=CC(=O)N1CC2(CCN(c3nc4c(c(-c5cc(Cl)cc6ccn(C)c56)c3C#N)COC(C)(C)C4)C2)C1 (single isomer, unassigned) [Example 12-9, (P)-4-(5-chloro-1-methyl-1H-indol-7-yl)-7,7-dimethyl-2-(2-(2-propenoyl)-2,6-diazaspiro[3.4]octan-6-yl)-7,8-dihydro-5H-pyrano[4,3-b]pyridine-3-carbonitrile]
4 | 7.42 µM | C=CC(=O)N1CC2(CCN(c3nc4c(c(-c5cc(Cl)cc6ccn(C)c56)c3C#N)COC(C)(C)C4)C2)C1 (single isomer, unassigned) [Example 12-10, (M)-4-(5-chloro-1-methyl-1H-indol-7-yl)-7,7-dimethyl-2-(2-(2-propenoyl)-2,6-diazaspiro[3.4]octan-6-yl)-7,8-dihydro-5H-pyrano[4,3-b]pyridine-3-carbonitrile]
5 | 18.7 µM | C=CC(=O)N1CC2(CCN(c3nc4c(c(-c5c(C)c(Cl)cc6cnn(C)c56)c3C)CCN(C(C)C)C4)C2)C1 (single isomer, unassigned) [Example 12-23, (P)-1-(6-(4-(5-chloro-1,6-dimethyl-1H-indazol-7-yl)-3-methyl-7-(2-propanyl)-5,6,7,8-tetrahydro-1,7-naphthyridin-2-yl)-2,6-diazaspiro[3.4]octan-2-yl)-2-propen-1-one]
6 | 0.05 µM | C=CC(=O)N1CC2(CCN(c3nc4c(c(-c5c(C)c(Cl)cc6cnn(C)c56)c3C)CCN(C(C)C)C4)C2)C1 (single isomer, unassigned) [Example 12-24, (M)-1-(6-(4-(5-chloro-1,6-dimethyl-1H-indazol-7-yl)-3-methyl-7-(2-propanyl)-5,6,7,8-tetrahydro-1,7-naphthyridin-2-yl)-2,6-diazaspiro[3.4]octan-2-yl)-2-propen-1-one]
7 | 0.441 µM | C=CC(=O)N1CC2(CCN(c3nc4c(c(-c5c(F)cccc5[C@H](C)O)c3C#N)C[C@H]3C[C@@H]4C3(C)C)C2)C1 (single isomer, unassigned) [Example 12-36]
8 | 1.44 µM | C=CC(=O)N1CC2(CCN(c3nc4c(c(-c5c(F)cccc5[C@@H](C)O)c3C#N)C[C@H]3C[C@@H]4C3(C)C)C2)C1 (single isomer, unassigned) [Example 12-37]
9 | 3.9 µM | C=CC(=O)N1CC2(CCN(c3nc4c(c(-c5cc(O)cc6nccnc56)c3C#N)C[C@H]3C[C@@H]4C3(C)C)C2)C1 (single isomer, unassigned) [Example 12-39]
10 | 11 µM | C=CC(=O)N1CC2(CCN(c3nc4c(c(-c5cc(O)cc(Cl)c5C)c3C)COC(C)(C)C4)C2)C1 (single isomer, unassigned) [Example 12-44, (P)-1-(6-(4-(3-chloro-5-hydroxy-2-methylphenyl)-3,7,7-trimethyl-7,8-dihydro-5H-pyrano[4,3-b]pyridin-2-yl)-2,6-diazaspiro[3.4]octan-2-yl)prop-2-en-1-one]
11 | 19.9 µM | C=CC(=O)N1CC2(CCN(c3nc4c(c(-c5c(C)ccc6cnn(C)c56)c3C#N)CC(C)(C)C4)C2)C1 (single isomer, unassigned) [Example 13-17, (M)-4-(1,6-dimethyl-1H-indazol-7-yl)-6,6-dimethyl-2-(2-(2-propenoyl)-2,6-diazaspiro[3.4]octan-6-yl)-6,7-dihydro-5H-cyclopenta[b]pyridine-3-carbonitrile]
12 | 1.8 µM | C=CC(=O)N1CC2(CCN(c3nc4c(c(-c5ccccc5Cl)c3C#N)CC(C)(C)C4)C2)C1 (single isomer, unassigned) [Example 13-24, (M)-4-(2-chlorophenyl)-6,6-dimethyl-2-(2-(2-propenoyl)-2,6-diazaspiro[3.4]octan-6-yl)-6,7-dihydro-5H-cyclopenta[b]pyridine-3-carbonitrile]
13 | 0.337 µM | C=CC(=O)N1CC2(CCN(c3nc4c(c(-c5ccccc5Cl)c3C#N)CC(C)(C)C4)C2)C1 (single isomer, unassigned) [Example 13-25, (P)-4-(2-chlorophenyl)-6,6-dimethyl-2-(2-(2-propenoyl)-2,6-diazaspiro[3.4]octan-6-yl)-6,7-dihydro-5H-cyclopenta[b]pyridine-3-carbonitrile]
14 | 0.266 µM | C=CC(=O)N1CC2(CCN(c3nc4c(c(-c5ccnn5C)c3C#N)CC[C@H](c3ccnn3C)C4)C2)C1 (single isomer, unassigned) [Example 13-28]
15 | 0.217 µM | C=CC(=O)N1CC2(CCN(c3nc4c(c(-c5ccnn5C)c3C#N)CC[C@@H](c3ccnn3C)C4)C2)C1 (single isomer, unassigned) [Example 13-29]
16 | 0.652 µM | C=CC(=O)N1CC2(CCN(c3nc4c(c(-c5c(C)ccc6cnn(C)c56)c3C#N)C[C@H]3C[C@@H]4C3)[C@H]2C)C1 (single isomer, unassigned) [Example 13-31]
17 | 64.9 µM | C=CC(=O)N1CC2(CCN(c3nc4c(c(-c5c(C)ccc6cnn(C)c56)c3C#N)C[C@H]3C[C@@H]4C3)[C@H]2C)C1 (single isomer, unassigned) [Example 13-32]
18 | 0.991 µM | C=CC(=O)N1CC2(CCN(c3nc4c(c(-c5c(O)ccc6ccccc56)c3C#N)C[C@H]3C[C@@H]4C3)C2)C1 (single isomer, unassigned) [Example 13-36]
19 | 31.7 µM | C=CC(=O)N1CC2(CCN(c3nc4c(c(-c5c(O)ccc6ccccc56)c3C#N)C[C@H]3C[C@@H]4C3)C2)C1 (single isomer, unassigned) [Example 13-37]
20 | 0.639 µM | C=CC(=O)N1CC2(CCN(c3nc4c(c(-c5c(C)cccc5O)c3C#N)C[C@H]3C[C@@H]4C3)C2)C1 (single isomer, unassigned) [Example 13-39]
21 | 34.1 µM | C=CC(=O)N1CC2(CCN(c3nc4c(c(-c5c(C)cccc5O)c3C#N)C[C@H]3C[C@@H]4C3)C2)C1 (single isomer, unassigned) [Example 13-40]
22 | 23.3 µM | C=CC(=O)N1CC2(CCN(c3nc4c(c(-c5cc(O)cc6ccccc56)c3C#N)COC(C)(C)C4)C2)C1 (single isomer, unassigned) [Example 13-42, (M)-4-(3-hydroxy-1-naphthalenyl)-7,7-dimethyl-2-(2-(2-propenoyl)-2,6-diazaspiro[3.4]octan-6-yl)-7,8-dihydro-5H-pyrano[4,3-b]pyridine-3-carbonitrile]
23 | 141 µM | C=CC(=O)N1CC2(CCN(c3nc4c(c(-c5c(C)ccc6cnn(C)c56)c3C#N)COC4(C)C)C2)C1 (single isomer, unassigned) [Example 13-56, (P)-4-(1,6-dimethyl-1H-indazol-7-yl)-,7,7-dimethyl-2-(2-(2-propenoyl)-2,6-diazaspiro[3.4]octan-6-yl)-5,7-dihydrofuro[3,4-b]pyridine-3-carbonitrile]
